# According to the Bradley open melting point set (2014):
row,SMILES,melting point
1,Cc1c(C(=O)OCC(N)=O)cnn1-c1ccccc1 [OSM-S-57],154 °C
2,CCCCCCCCCCCCCCCCCCN [Octadecan-1-amine],56 °C
3,CC(C)NCC(O)c1cc(O)cc(O)c1 (stereo not drawn) [Orciprenaline],100 °C
4,O=C(O)c1cc(=O)[nH]c(=O)[nH]1 [Orotic Acid],346 °C
5,O=C(O)CCc1nc(-c2ccccc2)c(-c2ccccc2)o1 [Oxaprozin],158 °C
6,Clc1ccc(-c2ccc(Cl)cc2)cc1 [PCB-15],149 °C
7,CC(C)(S)[C@@H](N)C(=O)O [Penicillamine],198 °C
8,Oc1c(Cl)c(Cl)c(Cl)c(Cl)c1Cl [Pentachlorophenol],190 °C
9,Oc1c(F)c(F)c(F)c(F)c1F [Pentafluorophenol],35 °C
10,CCCC(C)O (stereo not drawn) [Pentan-2-ol],-50 °C
11,CCCC(C)=O [Pentan-2-one],-78 °C
12,CCCCC=O [Pentanal],-91.5 °C
13,CCOc1ccc(NC(C)=O)cc1 [Phenacetin],135 °C
14,"O=C1C(=O)c2ccccc2-c2ccccc21 [Phenanthrene-9,10-dione]",210 °C
15,c1ccc2c(c1)ccc1ccccc12 [Phenanthrene],100 °C
16,c1ccc2nc3ccccc3nc2c1 [Phenazine],158 °C
17,CCC1(c2ccccc2)C(=O)NC(=O)NC1=O [Phenobarbital],174 °C
18,CCOc1ccc(NC(=O)CN)cc1 [Phenokoll],101 °C
19,O=C(c1ccccc1)c1cccs1 [Phenyl(2-thienyl)methanone],57 °C
20,CCCCC1C(=O)N(c2ccccc2)N(c2ccccc2)C1=O [Phenylbutazone],107 °C
21,OCc1ccccc1 [Phenylmethanol],-15 °C
22,O=C1NC(=O)C(c2ccccc2)(c2ccccc2)N1 [Phenytoin],286 °C
23,O=C2c1ccccc1S(=O)(=O)N(C)C/2=C(O)Nc3ccccn3 [Piroxicam],199 °C
24,CC[C@H](C)C(=O)O[C@H]1C[C@H](O)C=C2C=C[C@H](C)[C@H](CC[C@@H](O)C[C@@H](O)CC(=O)O)[C@H]21 [Pravastatin],326 °C
25,O=C(C1CCCCC1)N1CC(=O)N2CCc3ccccc3C2C1 (stereo not drawn) [Praziquantel],136 °C
26,C[C@]12C=CC(=O)C=C1CC[C@@H]1[C@@H]2C(=O)C[C@@]2(C)[C@H]1CC[C@]2(O)C(=O)CO [Prednisone],234 °C
27,CCC1(c2ccccc2)C(=O)NCNC1=O [Primidone],282 °C

row,SMILES,melting point
1,Clc1ccc(NC(/N)=NC(N)=NC(C)C)cc1 [Proguanil],129 °C
2,C=CCO [Prop-2-en-1-ol],-129 °C
3,"CC(=O)OCC(COC(C)=O)OC(C)=O [Propane-1,2,3-triyl triacetate]",3 °C
4,CCC(=O)OC(=O)CC [Propanoic anhydride],-45 °C
5,N#Cc1ccc2c(c1)N(CCCN1CCC(O)CC1)c1ccccc1S2 [Propericiazine (JAN)],82 °C
6,CCC#N [Propiononitrile],-92 °C
7,CC(C)NCC(O)COc1cccc2ccccc12 (stereo not drawn) [Propranolol],164 °C
8,CCCc1ccccc1 [Propylbenzene],-99 °C
9,CC(O)CO (stereo not drawn) [Propylene glycol],-60 °C
10,Cc1ncc(CO)c(C=O)c1O [Pyridoxal],172 °C
11,Cc1ncc(CO)c(CO)c1O [Pyridoxine],160 °C
12,CCc1nc(N)nc(N)c1-c1ccc(Cl)cc1 [Pyrimethamine],234 °C
13,CC(=O)C(=O)O [Pyruvic acid],11.8 °C
14,"C[C@@H](O)[C@@H](C)O [R,R-2,3-butanediol]",16 °C
15,C[C@@H]1O[C@H](OC[C@@H]2O[C@H](Oc3c(-c4ccc(O)c(O)c4)oc4cc(O)cc(O)c4c3=O)[C@@H](O)[C@H](O)[C@H]2O)[C@@H](O)[C@H](O)[C@H]1O [Rutin],125 °C
16,"CCCC(=O)OCSc1ncnc2c1ncn2COC(=O)CCC [S6,9-Bis(butanoyloxymethyl)-6-mercaptopurine]",69 °C
17,CC(C)(C)NCC(O)c1ccc(O)c(CO)c1 (stereo not drawn) [Salbutamol],158 °C
18,NC(=O)c1ccccc1O [Salicylamide],142 °C
19,C=CCC1([C@H](C)CCC)C(=O)NC(=O)NC1=O [Secobarbital],100 °C
20,CCCC(C)(COC(N)=O)COC(N)=O [Sowell],104 °C
21,C=Cc1ccccc1 [Styrene],-31 °C
22,CC(=O)NS(=O)(=O)c1ccc(N)cc1 [Sulfacetamide],182 °C
23,Cc1ccnc(NS(=O)(=O)c2ccc(N)cc2)n1 [Sulfamerazine],236 °C
24,Cc1cc(C)nc(NS(=O)(=O)c2ccc(N)cc2)n1 [Sulfamethazine] [listing 1 of 2 here],196 °C
25,Cc1cc(C)nc(NS(=O)(=O)c2ccc(N)cc2)n1 [Sulfamethazine] [listing 2 of 2 here],198 °C
26,O=C(O)c1cc(/N=N/c2ccc(S(=O)(=O)Nc3ccccn3)cc2)ccc1O [Sulfasalazine],220 °C
